Like-named read-outs stand apart in the source and are kept apart here.
What was measured:
[1] = tested on: antibody to 25-hydroxy vitamin D; conditions: as stated in the manufacturer's product insert; cited from earlier work
[2] = tested on: antivitamin-D coated microparticles; set-up: concentration or dose not given beside the values; conditions: as stated in the manufacturer's product insert; cited from earlier work
[3] = as stated in the manufacturer's product insert; cited from earlier work
[4] = tested on: anti-25-hydroxy vitamin D antibodies (Ab5H10 and Ab2F4); assay: Cross-reactivity test of the present competitive chemiluminescent ELISA in low BSA buffer; format: binding, sheep; conditions: for Cross reactivity as potentially interfering compound (in words): final assay conditions
Procedure: The liquid phase of the assay reaction included the sample (mixed with the sample diluent) and included the anti-vitamin-D antibodies and the alkaline phosphatase (AP) conjugate. As discussed below, in many cases mixtures of two types of anti-vitamin D antibodies were used. For example, in many cases, the anti-vitamin-D antibodies Ab5H10 and Ab2F4 were mixed into the diluted sample (final concentrations 10 ng/mL Ab5H10 and 5 ng/mL Ab2F4), and then the AP conjugate was mixed into the solution that included the sample, the sample diluent, and the anti-vitamin-D antibodies. This liquid mixture was incubated with the capture surface (anti-sheep antibody bound to UltraAvidin™-coated polystyrene).
Vitamin D assay methods using pepsin degradation of vitamin D binding proteins at low pH were then further optimized in subsequent experiments, including experiments performed at an operating temperature of 34° C. […] This sample treatment and assay protocol consisted of a 1:5 dilution of the sample into 10 mg/mL pepsin in 100 mM citrate buffer pH 2.6, followed by a 1:8 dilution into 50 mM TRIS pH 8.0 which brought the pH of the diluted sample to 8.0 and neutralized the pepsin. Then the sheep anti-25-hydroxy vitamin D antibody was added and incubated with the sample for 10 minutes. Following addition of the anti-25-hydroxy vitamin D antibody, the 25-hydroxy vitamin D-AP conjugate was added, resulting in a final sample dilution of 1:50. The mixture was then incubated on the anti-sheep capture surface for 5 minutes, followed by a wash and 5 minute substrate incubation.
1. Sample was diluted 1:5 into 100 mM Citrate buffer pH 2.6 containing 10 mg/mL pepsin and mixed (final pH 3.9) for 5 minutes at 34° C.
2. Treated sample was diluted a further 1:8 into 50 mM TRIS buffer pH 8.0 to permanently deactivate the pepsin, and anti-25-hydroxy vitamin D antibody in a blocking buffer was spiked in and mixed. This mixture was incubated for 10 minutes.
3. The AP-labeled 25-hydroxy vitamin D was added to the sample mixture and then transferred to the capture surface (biotinylated anti-sheep secondary antibody bound to UltraAvidin™-coated polystyrene) and incubated for 5 minutes.
4. The surface was washed six times (1 minute for each wash cycle) with 0.05% Tween20® in 50 mM TBS containing 0.05% sodium azide at pH8.0.
5. The washed capture surface was exposed to enzyme substrate for five minutes and the chemiluminescence was read in an automated luminometer.
Tests were performed in order to determine whether non-target compounds could interfere with the assay results. Such tests, termed “cross-reactivity tests”, measured the change in measured 25-hydroxy vitamin D due to the presence of a non-target substance by comparing the value of 25-hydroxy vitamin D measured by the present methods where a potentially interfering compound was in the sample, as compared to the value of 25-hydroxy vitamin D measured by the present methods in the absence of the potentially interfering compound. Cross reactivity testing was conducted using the final assay conditions in a low BSA buffer matrix (0.03% BSA in TBS). Cross-reactivity was reported in these assays as % recovery=100×([measured vitamin D])/([nominal vitamin D]); [measured vitamin D] is the 25-hydroxy vitamin D concentration measured in the presence of the potentially interfering compound, and [nominal vitamin D] is the 25-hydroxy vitamin D concentration measured in the absence of the potentially interfering compound. […] (Note that an interfering compound would displace labeled 25-hydroxy vitamin D in the competition assays disclosed herein, so that the interfering compound would cause an apparent (erroneous) increase in the measured 25-hydroxy vitamin D.) For comparison, values for 25-hydroxy vitamin D3 (a direct target of the assay, and not a cross-reactant) are presented in the table.

[5] = as stated in the manufacturer's product insert, b197 cites literature, cited from earlier work
[6] = Reagent stability: lyophilized pepsin versus frozen aliquots, compared by vitamin D results on clinical samples; conditions: 10 mg/mL, reconstituted with 100 mM citrate buffer pH 2.6
Procedure: The stability of pepsin in frozen aliquots of aqueous pepsin solution and of dry, lyophilized pepsin (e.g., a lyophilized powder formed from an aqueous pepsin solution) was measured. Pepsin was lyophilized in containers suitable for use when reconstituted, e.g., in an automated assay device. The pepsin was provided in a solution at a concentration of 10 mg/mL and was lyophilized into the containers to obtain the final reconstituted amount and concentration equal to the concentration and amounts used in the assay methods disclosed herein. The containers of lyophilized reagent were placed into cartridges (arrays including several such containers) and the reagent was reconstituted with 100 mM citrate buffer (pH 2.6). Clinical samples were used for comparison, and the vitamin D results were calculated for both conditions based on the standard curve obtained for frozen pepsin/buffer aliquots.

[7] = test substance 50 ng/mL, OORL = out of range - low, below the detection limit
[8] = test substance 50 ng/mL, low BSA buffer
[9] = test substance 100 ng/mL, OORL = out of range - low, below the detection limit
[10] = test substance 100 ng/mL, low BSA buffer
[11] = test substance 150 ng/mL, OORL = out of range - low, below the detection limit
[12] = test substance 150 ng/mL, low BSA buffer (0.03% BSA in TBS)

| Compound | Vitamin D metabolite cross reactivity, DiaSorin 25-Hydroxyvitamin D 125I RIA [1] [%] | Vitamin D metabolite cross reactivity, DiaSorin Liaison 25 OH Vitamin D TOTAL [2] [%] | Vitamin D metabolite cross reactivity, Roche Vitamin D3 (25-OH) [3] | Vitamin D metabolite cross reactivity, Present Methods [4] [%] | Cross reactivity as potentially interfering compound (in words) ([4]; low BSA buffer) | Conc., ng/mL Mean (measured 25-hydroxy vitamin D) [4, 7] | Signal, RLU Mean [4, 8] [RLU] | Conc., ng/mL Mean (measured 25-hydroxy vitamin D) [4, 9] | Signal, RLU Mean [4, 10] [RLU] | Conc., ng/mL Mean (measured 25-hydroxy vitamin D) [4, 11] | Signal, RLU Mean [4, 12] [RLU] | Vitamin D metabolite cross reactivity, IDS ELISA kit [5] [%] | also measured |
| --- | --- | --- | --- | --- | --- | --- | --- | --- | --- | --- | --- | --- | --- |
| C=C1/C(=C\C=C2/CCC[C@]3(C)[C@@H]([C@H](C)/C=C/[C@H](C)C(C)(C)O)CC[C@@H]23)C[C@@H](O)C[C@@H]1O [1.25(OH)2 D2, 1,25-dihydroxy vitamin D2] | 11 | 40 | – | – | – | – | – | – | – | – | – | – | – |
| C=C1/C(=C\C=C2/CCC[C@]3(C)[C@@H]([C@H](C)CCCC(C)(C)O)CC[C@@H]23)C[C@@H](O)C[C@@H]1O [1α,25-Dihydroxy Vitamin D3, 1α,25-dihydroxy vitamin D3] | 11 | 17 | up to 100% | 70 | Some cross reactivity | 36.5 ng/mL | 7804 | 60.6 ng/mL | 3642 | 107.1 ng/mL | 2352 | – | % Recovery ([4]; test substance 50 ng/mL): 73%; % Recovery ([4]; test substance 100 ng/mL): 61%; % Recovery ([4]; test substance 150 ng/mL): 71% |
| C=C1CCC(O)C/C1=C\C=C1\CCCC2(C)C1CCC2C(C)CCC(O)C(C)(C)O (stereo not drawn) [24,25-Dihydroxy Vitamin D3, 24,25-dihydroxy vitamin D3] | – | – | – | – | No cross reactivity | OORL | 25059 | OORL | 23735 | OORL | 22992 | >100 | – |
| C=C1CC[C@H](O)C/C1=C/C=C1\CCC[C@]2(C)[C@@H]([C@H](C)/C=C/[C@H](C)C(C)(C)O)CC[C@@H]12 [25(OH) D2, 25-hydroxy vitamin D2] | 100 | 104 | <10% | 110 | – | – | – | – | – | – | – | 75 | Vitamin D metabolite cross reactivity, IDS ELISA kit ([5]; listed as 25-hydroxy Vitamin D2): 75% |
| C=C1CC[C@H](O)C/C1=C/C=C1\CCC[C@]2(C)[C@@H]([C@H](C)CCCC(C)(C)O)CC[C@@H]12 [25-Hydroxy vitamin D3, 25-hydroxy vitamin D3] | 100 | 100 | 100% | 100 | – | 55.5 ng/mL | 4044 | 76.5 ng/mL | 2941 | 104.5 ng/mL | 2432 | 100 | % Recovery ([4]; test substance 10 ng/mL): 110%; Conc., ng/mL Mean (measured 25-hydroxy vitamin D) ([4]; test substance 10 ng/mL): 11.0 ng/mL; Signal, RLU Mean ([4]; test substance 10 ng/mL, low BSA buffer): 20071 RLU; % Recovery ([4]; test substance 25 ng/mL): 83%; Conc., ng/mL Mean (measured 25-hydroxy vitamin D) ([4]; test substance 25 ng/mL): 20.8 ng/mL; Signal, RLU Mean ([4]; test substance 25 ng/mL, low BSA buffer): 14076 RLU; % Recovery ([4]; test substance 50 ng/mL): 111%; % Recovery ([4]; test substance 100 ng/mL): 77%; % Recovery ([4]; test substance 150 ng/mL): 70% |
| C=C1CC[C@H](O)C/C1=C/C=C1\CCC[C@]2(C)[C@@H]([C@H](C)CCCC(C)C)CC[C@@H]12 [Cholecalciferol (Vitamin D3), cholecalciferol] | 0.8 | <1 | <1% | <0.01 | No cross reactivity | OORL | 31046 | OORL | 30864 | OORL | 31607 | <0.01 | – |
| C=C1CC[C@H](O)C/C1=C/C=C1\CCC[C@]2(C)[C@@H]([C@H](C)/C=C/[C@H](C)C(C)C)CC[C@@H]12 [Ergocalciferol (Vitamin D2), ergocalciferol] | 0.8 | <1 | <1% | <0.01 | No cross reactivity | OORL | 30040 | OORL | 27040 | OORL | 30935 | <0.3 | – |
| pepsin: porcine gastric mucosa pepsin (Sigma catalog # P7000) | – | – | – | – | – | – | – | – | – | – | – | – | Stability: results with lyophilized reagent versus (thawed) frozen aliquot [6]: no significant differences |

Source: US10073103B1, “Rapid measurement of total vitamin D in blood” (Theranos, Inc., priority 2013, dated 2018)
